From patent US20230201341A1, “TLR3 AND TLR9 AGONISTS AS VACCINE ADJUVANTS FOR ANTI-CANCER DNA VACCINES” (WISCONSIN ALUMNI RESEARCH FOUNDATION, priority 2021, published 2023)

Test system: TRAMP-C1 tumor cells
Test: Tumor study with TRAMP-C1 tumors: DNA vaccine pTVG-AR co-delivered with TLR agonists
Format: in vivo, C57BL/6 mice
Conditions: administered with a DNA cancer vaccine in mice; compared with vaccine alone
From the text: FIG. 6. Combinations of TLR agonists improve the anti-tumor efficacy of a DNA vaccine in a prostate cancer tumor model. C57BL/6 mice were implanted subcutaneously with TRAMP-C1 tumor cells. Mice were immunized intradermally weekly with control vector (pTVG4) or DNA encoding AR ligand-binding domain (pTVG-AR) and delivered alone or co-delivered with TLR1/2, TLR3 and/or TLR9 agonists. (A) shown are the growth curves for each group (n=6 animals per group). (B) Survival plots using the time to death or when tumors reached 2 cm3 in size, whichever occurred first. (C) Tumors obtained at necropsy were evaluated for the percentage of infiltrating CD45^+ cells, CD8^+ T cells among CD45^+ cells, and Treg cells (CD25^+Foxp3^+) among CD4^+CD45^+ cells. (D) Tumor-infiltrating CD8+ T cells were evaluated for 4-1BB and PD-1 expression by flow cytometry.
FIG. 11. Combinations of TLR agonists improve the anti-tumor efficacy of a DNA vaccine in a prostate cancer tumor model. […]
Six- to ten-week-old male C57BL/6 mice were inoculated with 1×10^6 TRAMP-C1 cells, administered subcutaneously with matrigel. […] TLR agonist(s) were co-administered with the vaccine intradermally, and tumor volumes were measured as described above. Obtained tumors were digested in collagenase and DNAse I for 1 hour at 37° C., passed through a […] screen, and analyzed by flow cytometry.

ODN 1826
tumor growth suppression: improved the tumor growth suppression
